Patent publication US20040033943A1, “Hcn polypeptides and polynucleotides and their use in therapy” (priority 2000, published 2004)
Like-named read-outs stand apart in the source and are kept apart here.

Columns and labels:
HCN channels = conditions: non use-dependent; cited from earlier work
[1] = test system: primary hippocampal neurons; experiment: Excitotoxicity in dispersed primary hippocampal cultures (MTT cell survival); assay type: cell-based, Sprague Dawley rat
Ih = experiment: Whole-cell patch-clamp detection of Ih in neurones from both culture models; assay type: cell-based, rat
NMDA receptor = assay type: cell-based
hippocampal cultures = experiment: Spontaneous synaptic activity and membrane potential in hippocampal cultures, Mg2+-free insult; assay type: cell-based, rat; conditions: 100 μM; applied before, during or after the Mg2+-free insult
Description: When Mg^2+ containing medium was reinstated 15 mins later there was a sustained increase in spontaneous activity above that recorded prior to the Mg^2+ free challenge. No change in the magnitude of the Ih current was recorded during or after the Mg^2+ free challenge. […] This reduction in activity differed from that induced by the NMDA receptor antagonist AP5 in that the frequency of activity in the presence of ZD7288 was much lower, yet individual events were much larger, than that observed in AP5.

[2] = test system: metabotropic glutamate receptor; experiment: Selectivity: metabotropic glutamate receptor activation; assay type: cell-based; conditions: 100 μM
[3] = test system: voltage-gated Ca2+ channel; experiment: Selectivity: voltage-gated Ca2+ channel activation; assay type: cell-based; conditions: 100 μM
[4] = test system: organotypic hippocampal slice cultures, hippocampal CA1 region; experiment: Oxygen/glucose deprivation of hippocampal organotypic slice cultures (PI staining); assay type: cell-based, Lister Hooded rat
[5] = test system: voltage-gated Na+ and K+ channels; experiment: Selectivity: action potential firing; assay type: cell-based; conditions: 100 μM
SCN neurones = experiment: Suprachiasmatic nucleus slices, extracellular single unit recordings; assay type: cell-based, rat; conditions: 10-100 μM; all neurones tested
Description: Supraachiasmatic nucleus slices were prepared from 4-6 week old rats that had been sacrificed by cervical dislocation and subsequent decapitation in accordance with UK Home Office guidelines. The brain was removed rapidly and SCN slices prepared by cutting 400 μm thick coronal sections through the whole brain minus the cerebellum using a vibroslicer (Campden Instruments, Loughborough, UK). The resultant SCN slices were placed in a warmed (32-34° C.) submersion recording chamber perfused at 1-2 ml.min^−1 with an oxygen-enriched (95% O2, 5% CO2) artificial cerebrospinal fluid (aCSF) comprised of (mM): NaCl, 124; KCl, 3; NaHCO3, 26; NaH2PO4, 1.25; CaCl2, 2; MgSO4, 1; D-glucose, 10. Extracellular single unit recordings were made using glass microelectrodes (24 MΩ) filled with aCSF placed in the SCN.

hippocampal slices = experiment: Epileptiform bursting activity in hippocampal slices (field recordings, area CA3); assay type: cell-based, rat; conditions: irrespective of model: bicuculline, Mg2+-free, 4-AP, Ca2+-free/elevated K+
Description: Hippocampal slices were prepared from 4-6 week old rats that had been sacrificed by cervical dislocation and subsequent decapitation in accordance with UK Home Office guidelines. The brain was removed rapidly and hippocampal slices prepared by cutting 400 μm thick horizontal sections through the whole brain minus the cerebellum using a vibroslicer (Campden Instruments, Loughborough, UK). The hippocampus from these sections was dissected free from the surrounding brain regions and the resultant hippocampal slices placed on a nylon mesh at the interface of a warmed (32-34° C.), perfusing (1-2 ml.min^−1) artificial cerebrospinal fluid (aCSF) and an oxygen-enriched (95% O2, 5% CO2), humidified atmosphere. The standard perfusion medium comprised (mM): NaCl, 124; KCl, 3; NaHCO3, 26; NaH2PO4, 1.25; CaCl2, 2; MgSO4, 1; D-glucose, 10; and was bubbled with 95% O2, 5% CO2. Extracellular field potential recordings were made using glass microelectrodes (24 MΩ) filled with aCSF placed in stratum pyramidale in area CA3. […] Non synaptic field bursting activity (that is relevant to both epilepsy and migraine) was induced by removal of extracellular Ca^2+ and elevation of extracellular K^+ from 3 mM to 6-8 mM (FIG. 12).

CCN(c1ccccc1)c1cc(=NC)n(C)c(C)n1.Cl [ZD7288, N-ethyl-1,6-dihydro-1,2-dimethyl-6-(methylimino)-N-phenyl-4-pyrimidinamine hydrochloride]
concentration range inhibiting HCN channels (HCN channels): 1 to 300 µM | NEURONAL SURVIVAL (%) ([1]; 1 μM, added 30 minutes before, during, and for 24 h after the insult): 40.6 ± 4.9% | NEURONAL SURVIVAL (%) ([1]; 3 μM, added 30 minutes before, during, and for 24 h after the insult): 40.1 ± 8.1% | NEURONAL SURVIVAL (%) ([1]; 10 μM, added 30 minutes before, during, and for 24 h after the insult): 48.4 ± 5.5% | NEURONAL SURVIVAL (%) ([1]; 30 μM, added 30 minutes before, during, and for 24 h after the insult): 56.7 ± 2.0% | NEURONAL SURVIVAL (%) ([1]; 100 μM, added 30 minutes before, during, and for 24 h after the insult): 65.9 ± 3.7% | NEURONAL SURVIVAL (%) ([1]; 100 μM, added during the 24 h recovery period only): 78.0 ± 5.5% | NEURONAL SURVIVAL (%) ([1]; 100 μM, added during the insult only): 79.5 ± 2.1% | NEURONAL SURVIVAL (%) ([1]; 300 μM, added 30 minutes before, during, and for 24 h after the insult): 88.5 ± 2.7% | NEURONAL SURVIVAL (%) ([1]; 300 μM, added during the 24 h recovery period only): 101.0 ± 1.2% | NEURONAL SURVIVAL (%) ([1]; 300 μM, added during the insult only): 97.9 ± 9.6% | delay of application after the insult without loss of neuroprotective efficacy ([1]; FIG. 4): up to 60 minutes | IC50 ([1]; Rattus norvegicus, Hippocampal neuron, hippocampal neurones, read-out: IC50 for inhibition of damage): ~120 µM | block of Ih (Ih; 100 μM): almost completely blocked | inhibition of hyperpolarization-activated current (Ih) (Ih; 0.1-100 μM): inhibited | direct effects on NMDA receptor activation (NMDA receptor): no direct effects | effect on membrane potential / current (hippocampal cultures): induced a membrane potential hyperpolarization/outward current | effect on spontaneous activity (hippocampal cultures): reduced spontaneous activity | direct effects on metabotropic glutamate receptor activation [2]: no direct effects | direct effects on voltage-gated Ca2+ channel activation [3]: no direct effects | DAMAGE (% Cell Loss) ([4]; 100 nM, added 60 minutes before, during, and for 24 h after the insult): 64.01 ± 4.66% | DAMAGE (% Cell Loss) ([4]; 300 nM, added 60 minutes before, during, and for 24 h after the insult): 15.12 ± 9.54% | DAMAGE (% Cell Loss) ([4]; 1 μM, added 60 minutes before, during, and for 24 h after the insult): 0.72 ± 0.44% | DAMAGE (% Cell Loss) ([4]; 10 μM, added 60 minutes before, during, and for 24 h after the insult): 4.58 ± 3.09% | DAMAGE (% Cell Loss) ([4]; 100 μM, added immediately after the insult and for the 24 h recovery period only): 12.50 ± 8.24% | neuroprotection ([4]; applied immediately after oxygen glucose deprivation, FIG. 3): neuroprotection was still observed | electrophysiological responses in stratum pyramidale and stratum radiatum of area CA1 ([4]; treated slices subjected to OGD, single-shock electrical stimulation in stratum radiatum, FIG. 3): possible to evoke normal electrophysiological responses | direct effects on action potential firing (activation of voltage-gated Na+ and K+ channels) [5]: no direct effects | effect on frequency of single unit firing (SCN neurones): concentration dependent reduction | effect on epileptiform bursting activity (hippocampal slices): concentration dependent inhibition

C[C@]12N[C@H](Cc3ccccc31)c1ccccc12 [MK-801]
NEURONAL SURVIVAL (%) [1]: 101 ± 1.2% | DAMAGE (% Cell Loss) [4]: 34.90 ± 15.99%
